Test results: patent US11046728B2, “Neuroactive steroids, compositions, and uses thereof” (Sage Therapeutics, Inc., priority 2013, dated 2021)

Columns and labels:
male Sprague Dawley rats = assay: Loss of righting reflex in rats; assay type: in vivo, rat; details: intravenous bolus 5 mg/kg
Description: The plasma pharmacokinetics and a qualitative assessment of sedation were obtained in male Sprague Dawley rats according to the following procedure. Rats were dosed by intravenous bolus dose (60 seconds) via the foot dorsal vein at 5 mg/kg in an appropriate vehicle. In order to assess sedation, rats were gently restrained by hand to a lateral position for dose administration. […] If the animal was unable to return to an upright position, the time was recorded as the onset of loss of righting reflex (LRR). […] Sluggish or incomplete righting twice consecutively within a 30 second interval qualifies as a loss of righting reflex. After onset of LRR, animals were assessed every 5 minutes in the same manner. Recovery of righting reflex is defined as the ability of a rat to right itself completely within 20 seconds of being placed in dorsal recumbency. The duration of LRR is defined as the time interval between LRR and the return of righting reflex.

[1] = biological target: TBPS binding, rat brain cortical membranes in the presence of 5 μM GABA; assay: 35S-TBPS displacement (steroid inhibition of TBPS binding); details: read-out: 35S-TBPS Radioligand Displacement (IC50)
Description: TBPS binding assays using rat brain cortical membranes in the presence of 5 μM GABA has been described (Gee et al, J. Pharmacol. Exp. Then 1987, 241, 346-353; Hawkinson et al, Mol. Pharmacol. 1994, 46, 977-985). Briefly, cortices are rapidly removed following decapitation of carbon dioxide-anesthetized Sprague-Dawley rats (200-250 g). The cortices are homogenized in 10 volumes of ice-cold 0.32 M sucrose using a glass/teflon homogenizer and centrifuged at 1500×g for 10 min at 4° C. The resultant supernatants are centrifuged at 10,000×g for 20 min at 4° C. to obtain the P2 pellets. The P2 pellets are resuspended in 200 mM NaCl/50 mM Na—K phosphate pH 7.4 buffer and centrifuged at 10,000×g for 10 min at 4° C. This washing procedure is repeated twice and the pellets are resuspended in 10 volumes of buffer. Aliquots (100 μL) of the membrane suspensions are incubated with 3 nM [^35S]-TBPS and 5 μL, aliquots of test drug dissolved in dimethyl sulfoxide (DMSO) (final 0.5%) in the presence of 5 μM GABA. The incubation is brought to a final volume of 1.0 mL with buffer. Nonspecific binding is determined in the presence of 2 μM unlabeled TBPS and ranged from 15 to 25%. Following a 90 min incubation at room temp, the assays are terminated by filtration through glass fiber filters (Schleicher and Schuell No. 32) using a cell harvester (Braudel) and rinsed three times with ice-cold buffer. Filter bound radioactivity is measured by liquid scintillation spectrometry. Non-linear curve fitting of the overall data for each drug averaged for each concentration is done using Prism (GraphPad). […] The concentration of test compound producing 50% inhibition (IC50) of specific binding and the maximal extent of inhibition (Imax) are determined for the individual experiments with the same model used for the overall data and then the means±SEMs of the individual experiments are calculated.
Various compounds are or can be screened to determine their potential as modulators of ^35S-TBPS binding in vitro. These assays are or can be performed in accordance with the above discussed procedures.

GABA receptor α1β2γ2 = biological target: T1, GABA receptor α1β2γ2 (Homo sapiens, UniProt P14867+P47870); assay: Patch clamp electrophysiology, Qpatch in Ltk cells; assay type: cell-based; details: 10 μM test article, GABA EC20 = 2 μM, read-out: GABA (α1β2γ2) Qpatch in Ltk, % efficacy at 10 μM
T1 construct: expressed in transfected cells; host or cells: LTK cells, stably transfected

GABA receptor α4β3δ = biological target: T2, GABA receptor α4β3δ (Homo sapiens, UniProt P28472+P48169); assay: Patch clamp electrophysiology, manual patch in CHO cells; assay type: cell-based; details: 10 μM test article, GABA EC20 = 2 μM, read-out: GABA (α4β3δ) Manual patch in CHO, % efficacy at 10 μM
T2 construct: expressed in transfected cells; host or cells: CHO cells, transiently transfected

male beagle dogs = assay: Duration of lateral recumbence in dogs; assay type: in vivo, dog; details: intravenous bolus, administered at 5 mg/kg
Description: The plasma pharmacokinetics and a qualitative assessment of sedation were obtained in male beagle dogs according to the following procedure. Dogs were dosed by intravenous bolus dose (60 seconds) via the cephalic vein at doses ranging from 2 to 5 mg/kg in an appropriate vehicle. In order to assess sedation, dogs were gently restrained for dose administration. If decreased muscle tone, limb weakness, or head drop was observed during dose administration, onset of lateral recumbence was recorded. […] Sluggish or incomplete righting to the sternal position qualifies as lateral recumbence. After onset of lateral recumbence, animals were assessed every 5 minutes in the same manner. The duration of lateral recumbence was recorded as the time interval between onset of lateral recumbence and the return to sternal position.

T2 sequence (P48169 36-554): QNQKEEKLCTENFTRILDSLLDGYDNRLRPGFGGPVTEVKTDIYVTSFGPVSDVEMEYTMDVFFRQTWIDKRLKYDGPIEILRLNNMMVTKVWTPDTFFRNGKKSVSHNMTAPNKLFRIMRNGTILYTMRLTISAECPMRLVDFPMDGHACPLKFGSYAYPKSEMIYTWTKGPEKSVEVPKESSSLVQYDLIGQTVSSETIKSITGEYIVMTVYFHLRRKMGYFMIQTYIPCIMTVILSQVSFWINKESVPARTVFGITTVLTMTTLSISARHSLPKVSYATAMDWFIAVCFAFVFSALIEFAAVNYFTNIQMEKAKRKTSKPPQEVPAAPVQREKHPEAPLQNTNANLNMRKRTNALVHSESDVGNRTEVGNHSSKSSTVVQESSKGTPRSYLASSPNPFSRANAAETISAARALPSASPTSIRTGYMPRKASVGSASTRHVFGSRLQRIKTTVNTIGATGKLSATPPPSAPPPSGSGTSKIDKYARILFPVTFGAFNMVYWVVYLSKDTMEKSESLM
T2 sequence (P28472 26-473): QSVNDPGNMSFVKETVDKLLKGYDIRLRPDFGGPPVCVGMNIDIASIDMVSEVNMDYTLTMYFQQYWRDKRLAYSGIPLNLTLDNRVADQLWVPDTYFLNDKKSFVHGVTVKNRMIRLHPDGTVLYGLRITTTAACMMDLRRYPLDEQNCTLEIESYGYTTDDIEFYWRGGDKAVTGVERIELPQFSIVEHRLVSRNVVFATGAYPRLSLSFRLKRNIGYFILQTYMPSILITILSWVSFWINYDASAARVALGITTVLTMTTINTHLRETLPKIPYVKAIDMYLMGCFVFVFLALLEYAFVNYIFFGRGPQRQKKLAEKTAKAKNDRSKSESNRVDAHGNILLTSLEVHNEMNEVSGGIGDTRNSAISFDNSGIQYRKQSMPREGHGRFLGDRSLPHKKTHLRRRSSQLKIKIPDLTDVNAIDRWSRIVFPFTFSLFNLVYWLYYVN
T2 sequence (O14764 25-452 partner): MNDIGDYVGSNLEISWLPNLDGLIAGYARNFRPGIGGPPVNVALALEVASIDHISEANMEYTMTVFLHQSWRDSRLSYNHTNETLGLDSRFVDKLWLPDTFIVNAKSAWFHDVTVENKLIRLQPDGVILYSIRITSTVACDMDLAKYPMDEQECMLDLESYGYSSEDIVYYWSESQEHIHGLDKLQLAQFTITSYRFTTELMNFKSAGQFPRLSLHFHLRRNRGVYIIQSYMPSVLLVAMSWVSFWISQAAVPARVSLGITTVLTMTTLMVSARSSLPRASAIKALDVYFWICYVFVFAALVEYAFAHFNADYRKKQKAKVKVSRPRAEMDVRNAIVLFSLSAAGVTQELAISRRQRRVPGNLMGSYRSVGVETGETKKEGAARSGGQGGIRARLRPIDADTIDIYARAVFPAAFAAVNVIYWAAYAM
T1 sequence (P14867 28-456): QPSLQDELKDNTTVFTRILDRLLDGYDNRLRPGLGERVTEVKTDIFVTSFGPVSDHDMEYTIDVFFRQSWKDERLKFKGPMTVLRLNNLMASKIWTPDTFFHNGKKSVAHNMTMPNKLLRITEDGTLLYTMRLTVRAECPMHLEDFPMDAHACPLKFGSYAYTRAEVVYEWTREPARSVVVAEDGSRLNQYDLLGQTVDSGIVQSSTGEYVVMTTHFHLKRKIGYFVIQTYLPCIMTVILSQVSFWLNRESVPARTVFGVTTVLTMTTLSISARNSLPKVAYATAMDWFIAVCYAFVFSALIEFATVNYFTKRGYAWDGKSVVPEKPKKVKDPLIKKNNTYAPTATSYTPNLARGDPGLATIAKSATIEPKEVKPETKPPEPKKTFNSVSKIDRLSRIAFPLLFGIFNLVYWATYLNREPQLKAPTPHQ
T1 sequence (P47870 25-512 limits assumed): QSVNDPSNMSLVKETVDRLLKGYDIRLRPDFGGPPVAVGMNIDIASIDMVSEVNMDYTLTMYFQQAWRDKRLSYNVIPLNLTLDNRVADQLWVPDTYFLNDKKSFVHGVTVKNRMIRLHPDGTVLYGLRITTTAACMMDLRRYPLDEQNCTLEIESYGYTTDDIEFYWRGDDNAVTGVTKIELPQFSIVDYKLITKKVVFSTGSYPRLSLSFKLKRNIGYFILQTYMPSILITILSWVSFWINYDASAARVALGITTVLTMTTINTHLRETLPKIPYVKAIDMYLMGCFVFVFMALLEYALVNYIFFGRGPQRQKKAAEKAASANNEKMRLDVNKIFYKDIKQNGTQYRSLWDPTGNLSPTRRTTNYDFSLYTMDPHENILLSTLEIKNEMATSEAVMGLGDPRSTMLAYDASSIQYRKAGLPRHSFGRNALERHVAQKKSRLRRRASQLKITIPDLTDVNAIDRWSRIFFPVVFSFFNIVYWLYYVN
T1 sequence (P18507 40-475 partner): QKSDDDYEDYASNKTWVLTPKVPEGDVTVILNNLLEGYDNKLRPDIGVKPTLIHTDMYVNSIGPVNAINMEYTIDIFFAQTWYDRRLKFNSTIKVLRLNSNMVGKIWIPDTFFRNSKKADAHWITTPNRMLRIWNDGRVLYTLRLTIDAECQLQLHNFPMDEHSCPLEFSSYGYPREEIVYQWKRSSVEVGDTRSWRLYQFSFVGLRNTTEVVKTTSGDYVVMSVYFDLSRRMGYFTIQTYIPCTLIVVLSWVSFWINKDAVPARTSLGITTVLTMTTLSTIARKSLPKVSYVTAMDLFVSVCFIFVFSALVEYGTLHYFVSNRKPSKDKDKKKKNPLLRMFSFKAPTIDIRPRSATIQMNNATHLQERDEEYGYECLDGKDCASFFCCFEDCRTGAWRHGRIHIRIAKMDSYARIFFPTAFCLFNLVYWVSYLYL

SMILES: CCCO[C@H]1C[C@@]2(C)[C@@H](CC[C@@H]3[C@@H]2CC[C@]2(C)[C@@H](C#N)CC[C@@H]32)C[C@@H]1O [Compound 16]
- Duration of LRR (min) (male Sprague Dawley rats): C (“C” indicates the duration of LRR to be >20 minutes)
- IC50 [1]: < 10 nM
- Emax at 10 µM (GABA receptor α1β2γ2): > 500%
- Emax at 10 µM (GABA receptor α4β3δ): 100 to 500%

SMILES: CCO[C@H]1C[C@@]2(C)[C@@H](CC[C@H]3[C@@H]4CC[C@H](C#N)[C@@]4(C)CC(=O)[C@@H]32)C[C@@H]1O [Compound 19]
- Duration of Lateral Recumbence (min) (male beagle dogs): A (“A” indicates the duration to be >20 minutes)
- Duration of LRR (min) (male Sprague Dawley rats): B (“B” indicates the duration of LRR to be 10-20 minutes)
- IC50 [1]: 50 to 100 nM
- Emax at 10 µM (GABA receptor α1β2γ2): > 500%

SMILES: CO[C@H]1C[C@]2(C)[C@@H](C#N)CC[C@H]2[C@@H]2CC[C@H]3C[C@H](O)CC[C@]3(C)[C@H]21 [Compound 31]
- Duration of Lateral Recumbence (min) (male beagle dogs): A (“A” indicates the duration to be >20 minutes)
- Duration of LRR (min) (male Sprague Dawley rats): B (“B” indicates the duration of LRR to be 10-20 minutes)
- IC50 [1]: 10 to 50 nM
- Emax at 10 µM (GABA receptor α1β2γ2): > 500%
- Emax at 10 µM (GABA receptor α4β3δ): 100 to 500%

SMILES: CO[C@H]1C[C@@]2(C)[C@@H](CC[C@H]3[C@@H]4CC[C@H](C#N)[C@@]4(C)CC(=O)[C@@H]32)C[C@@H]1O [Compound 3]
- Duration of Lateral Recumbence (min) (male beagle dogs): A (“A” indicates the duration to be >20 minutes)
- Duration of LRR (min) (male Sprague Dawley rats): A (“A” indicates the duration of LRR to be <10 min)
- IC50 [1]: > 500 nM
- Emax at 10 µM (GABA receptor α1β2γ2): 100 to 500%
- Emax at 10 µM (GABA receptor α4β3δ): 100 to 500%
